Consider 80 compounds from the METLIN SMRT retention time set (Domingo-Almenara et al. 2019).

Molecules are shown by their SMILES.

This data set can be described thus: gradient 5% acetonitrile 3 min, to 50% in 2 min, to 85% in 15 min, held 3 min, 100 µL/min. The following applies: column: Zorbax Extend-C18 2.1 x 50 mm; eluents: water / acetonitrile, 0.1% formic acid. The procedure, abridged: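 Retention times come from adduct peaks that were picked computationally and then checked by hand. The standards, pure and pooled in mixtures of ~100 molecules, were run on a Zorbax Extend-C18 column (2.1 × 50 mm, 1.8 μm) at 100 μL/min with water and acetonitrile, each with 0.1% formic acid. Detection was by quadrupole time-of-flight mass spectrometry in positive and negative ionization mode, with a dead volume of 40 μL and a dwell volume of 900 μL.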
The compound `O=C(NCc1ccccc1F)c1ccc(Cn2c(C(F)(F)F)nc3cccnc32)cc1` came in with an RP-LC retention time of 876 s.
In the case of `COc1cc(CCC(=O)O)on1` it was 658 s; in that of `Cc1nc2cc(-c3noc(-c4ccccn4)n3)ccc2n(C2CCCC2)c1=O`, 991 s.
`Cc1cc(C)cc(-n2ccnc(NC(=O)Nc3ccc(C)c(F)c3)c2=O)c1` had an RP-LC retention time of 1140 s.
In the case of `Cc1ccc(-c2noc(Cc3nnc(-c4ccccc4)o3)n2)cc1C` it was 1100 s.
Turning to `O=C1COc2ccccc2N1Cc1nc(-c2ccc3c(c2)nnn3C2CCCC2)no1`, the RP-LC retention time turned out to be 1030 s.
In the case of `CCOc1ccc(CNc2nc3ccncc3n(CC)c2=O)cc1OC` it was 618 s; in that of `Cc1[nH]c(C(=O)N2CCC(CC(=O)NCCN3CCCCC3)CC2)c(C)c1C`, 604 s; in that of `CCN(CC)c1cc2c(cc1NC(=O)c1ccco1)n(C)c(=O)c(=O)n2C`, 724 s.
`CCCNC(=O)CCC1CCN(c2cc(NCCC)ncn2)CC1` showed an RP-LC retention time of 606 s.
In the case of `CC(=O)c1ccc(NC(=O)c2cnn3c4c(cnc23)CCCCCC4)cc1` it was 1060 s.
For the compound `COc1ccc(-c2nc(Cn3c(=O)c4c(C)cc(C)nc4n(C)c3=O)c(C)o2)cc1OC`, the RP-LC retention time was 1100 s.
In the case of `Cc1nc(Nc2ccc(NC(=O)COc3ccc(Cl)cc3)cc2)cc(-n2ccnc2)n1` it was 646 s.
In the case of `CCCCn1c(=O)c2ccccc2n(Cc2nc(-c3cccc(OCC)c3)no2)c1=O` it was 1150 s; in that of `COc1ccc2c(c1)c(CN1CCC(C(=O)NCCC3=CCCCC3)CC1)cn2C`, 730 s; in that of `COC(=O)c1ccc(NS(=O)(=O)c2cccc(-c3nc(-c4ccc(C)cc4)no3)c2)cc1`, 1190 s.
`COc1ccc(OC)c(S(=O)(=O)N2CCCC(C)(C(=O)NCc3cccc(F)c3)C2)c1` (stereo not given) returned an RP-LC retention time of 916 s.
In the case of `NC(=O)C1(N2CCCCC2)CCN(C(=O)c2c(-c3ccccc3)nnc3ccccc23)CC1` it was 588 s; in that of `Cc1ccc(NC(=O)Nc2c(-c3ccc(F)cc3)nc3ccccn23)cc1C`, 714 s.
In the case of `CCCCNC(=O)c1c(O)c2cccnc2n(-c2cccc(OC)c2)c1=O` it was 1140 s.
In the case of `CCc1cccc(NC(=O)c2cc(C(C)C)n3nccc3n2)c1` it was 1240 s; in that of `CC(C)Oc1ccc(-c2noc(CN3N=NC4C(=O)N(c5ccc6c(c5)CCC6)C(=O)C43)n2)cc1` (stereo not given), 1180 s; in that of `Cc1cc(C(=O)N2CCCCC2)c2c(=O)n(CC(=O)Nc3cccc(C#N)c3)c(=O)n(C)c2n1`, 791 s.
As to `CCc1cc(=O)n(CC(=O)Nc2cccc(SC)c2)c(N2CCOCC2)n1`, the RP-LC retention time is 846 s.
In the case of `COc1cccc(C(=O)NC2CCN(c3cc(-c4cccs4)[nH]n3)C2)c1` (stereo not given) it was 700 s; in that of `CCn1cc(C(=O)N[C@@H](C)C(=O)O)c(=O)c2cc3c(cc21)OCO3`, 631 s.
In the case of `CC1(C)CC(=O)c2cn(-c3ccc(F)cc3)c(=O)c(C(=O)N3CCC(N4CCCCC4)CC3)c2C1`, the RP-LC retention time came to 634 s.
In the case of `Cc1ccn2cc(-c3cccc(S(=O)(=O)N4CCCC4)c3)nc2c1` it was 611 s; in that of `CCc1nc2ccc(-c3noc(CNC(=O)c4ccccc4)n3)cc2n1CC`, 637 s.
In the case of `Cc1cc2[nH]c(C(=O)Nc3ccccc3Br)c(CN3CCOCC3)c2s1` it was 708 s; in that of `CCOC(=O)c1ccccc1NC(=O)CSc1nnc2c3cc(-c4ccc(F)cc4)nn3ccn12`, 1030 s.
In the case of `O=C(c1nccc2ccccc12)N1CCC(c2noc(C3CC3)n2)C1` (stereo not given) it was 745 s.
Turning to `CN(Cc1cccs1)C(=O)NC(C)(C)C`, the RP-LC retention time stood at 817 s.
In the case of `Cc1noc(C)c1CCC(=O)N1CCCn2ccnc2C1C(C)C` (stereo not given) it was 590 s; in that of `Cc1csc(-c2cc(S(=O)(=O)NCCC3=CCCCC3)cn2CC(=O)N2CCCC2)n1`, 1030 s; in that of `CC(C)n1c(=O)sc2cc(S(=O)(=O)N3CCC(C(=O)NCCc4ccccc4)CC3)ccc21`, 985 s.
In the case of `CC(=O)NCC(=O)N1CCCn2cc(-c3ccccc3)nc21` it was 570 s; in that of `O=C(NCC(c1ccsc1)N1CCCC1)Nc1ccc(Cl)cc1` (stereo not given), 578 s; in that of `Cc1ccccc1Nc1c(-c2ccc(N3CCOCC3)cc2)nc2cccc(C)n12`, 702 s.
In the case of `COCCNC(=O)Nc1ccc(CCc2nc3ccccc3n2C)cc1` it was 583 s.
In turn, `CC1CNc2c(cccc2S(=O)(=O)N[C@@H](CCCN=C(N)N)C(=O)N2CC[C@@H](C)C[C@@H]2C(=O)O)C1` (stereo not given in full) displayed an RP-LC retention time of 822 s.
In the case of `CCn1nc(C)c(-c2cc(C(=O)NCC34CCC=C3N(C)C(=O)CC4)no2)c1C` (stereo not given) it was 741 s.
In the case of `COc1ccc(Nc2nccc(C3CCCN(C(=O)C4CCCCC4)C3)n2)cc1` (stereo not given) it was 997 s.
On to `COc1nc2ccccc2nc1N1CCCC(C(=O)N2CCN(c3ccccc3F)CC2)C1` (stereo not given), for which the RP-LC retention time is 1240 s.
`CC(C)(C)NC(=O)N1CC(c2nc(-c3cccnc3)no2)C2(CCOCC2)C1` (stereo not given) showed an RP-LC retention time of 677 s.
Consider `O=C(Cn1ncc2c(N3CCN(c4ccccn4)CC3)ncnc21)Nc1cccc(Br)c1`, for which the RP-LC retention time was determined as 648 s.
In the case of `COCCNC(=O)C1c2ccccc2CC(=O)N1C(C)C` (stereo not given) it was 648 s.
As to `CCN(CC)C(=O)N1CC(n2cc(C(=O)N3CCCC3)nn2)C1`, the RP-LC retention time amounted to 646 s.
In the case of `Cc1cc(NC(=O)C2CCN(C(=O)CSc3nnnn3C)CC2)no1` it was 607 s.
In the case of `CCCc1c(C(=O)O)nnn1-c1ccc(Cl)cc1` it was 778 s; in that of `Cc1cc(NC(=O)c2cn(Cc3cccc(F)c3)nc2OCc2cccc(F)c2)no1`, 1040 s.
In the case of `COc1ccc(C)cc1NS(=O)(=O)c1ccc2c(c1)CCCC(=O)N2` it was 709 s; in that of `COc1ccc(CCNc2ncnc(N)c2[N+](=O)[O-])cc1OC`, 660 s.
Turning to `O=S(=O)(c1cccc2cccnc12)N1CC[C@@H]2COCCN(Cc3cccnc3)[C@@H]2C1`, the RP-LC retention time is 600 s.
In the case of `CCC1CCCCN1CCCNC(=O)CCc1cc2ccc(C)cc2[nH]c1=O` (stereo not given) it was 596 s; in that of `COCCCNC(=O)c1cc2c(n(-c3ccc(C(F)(F)F)cc3)c1=O)CCCC2=O`, 823 s; in that of `Cc1ccsc1CN1CCc2[nH]nc(C(=O)N(C)C)c2C1`, 559 s.
As for `CCc1noc(-c2cnc3nc(C)ccc3c2Nc2cccc(OC)c2)n1`, the RP-LC retention time was determined as 778 s.
In the case of `COC(=O)c1ccc2nc(NC(=O)C3CCCCC3)sc2c1` it was 932 s; in that of `O=C(NCC1CCN(C(=O)c2ccccc2F)CC1)C(=O)Nc1ccon1`, 636 s.
In the case of `CNC(=O)C1CCN(C2=NS(=O)(=O)C(c3ccc(C(C)C)cc3)=C2C)CC1` it was 777 s; in that of `CCOc1ccccc1NC(=O)c1c(O)c2cccnc2n(-c2ccc(F)cc2)c1=O`, 1280 s; in that of `COc1ccc(NC(=O)C2CCN(S(=O)(=O)c3cc(-c4noc(C)n4)cs3)CC2)cc1OC`, 814 s.
In the case of `O=C(c1ccc[nH]1)N1CCN(C(=O)c2nnn3c2COC(c2ccc(Cl)cc2)C3)CC1` (stereo not given) it was 839 s; in that of `COc1cccc(CC2C(=O)Nc3ccc(Br)cc32)c1OC` (stereo not given), 842 s; in that of `COc1ccc(Cl)cc1S(=O)(=O)N1CCC(C(=O)NCc2cccnc2)CC1`, 625 s.
Compound `COc1ccc(NC(=O)C2CCN(c3cc(N4CCSCC4)ncn3)CC2)cc1Cl` came in with an RP-LC retention time of 706 s.
In the case of `CN(C)c1ccc(-c2nc(-c3cn(Cc4ccc(F)cc4)nn3)no2)cc1` it was 1010 s.
In the case of `COc1cccc(CNC(=O)c2cc3ccncc3n2C)c1OC` it was 602 s; in that of `CC1Oc2ccc(-c3csc(NC(=O)CCc4ccccc4)n3)cc2NC1=O` (stereo not given), 1050 s; in that of `CCOC(=O)c1nc(NCc2ccccc2OC)c2ccccc2n1`, 774 s.
In the case of `Cc1ccc2c(c1)N(C(=O)Cn1cc(-c3noc(-c4ccncc4)n3)nc1C)CCO2` it was 735 s; in that of `CCOC(=O)C1=C(CN2CC(C)CC(C)C2)NC(=O)NC1c1ccc(OC)cc1` (stereo not given), 653 s; in that of `Cn1ccc(C(=O)Nc2sccc2C(N)=O)n1`, 623 s.
As to `COc1cccc(N2C(=O)CC(c3ccc(OC)c(OC)c3)CC2=O)c1`, the RP-LC retention time was determined as 789 s.
Turning to `CCC(=O)NC1CCc2cccc(OC)c2C1` (stereo not given), the RP-LC retention time came to 821 s.
`COc1ccc(CNC(=O)NC2CCN(c3ccc(F)c(C)c3)C2=O)cc1` (stereo not given): the RP-LC retention time was 783 s.
In the case of `CC(CNC(=O)c1cc2sccc2n1C)c1ccccc1` (stereo not given) it was 983 s; in that of `CCCS(=O)(=O)c1nc2ccc(NS(=O)(=O)c3ccc(F)c(C)c3)cc2s1`, 983 s; in that of `CCN1CCCC1CNC(=O)c1ccc2nc(Cc3ccccc3)oc2c1` (stereo not given), 650 s.
